The record followed here is the NIST ThermoML archive (doi:10.1021/acs.jced.8b01189).

A short description of data set [1]: xn = mol fraction of the nth substance listed. Conditions: 298.15 K, 100 kPa, Liquid, Vibrating tube method.
The conditions of data set [2]: 298.15 K; 100 kPa; Liquid; Vibrating tube method.

± gives the expanded uncertainty stated by the source.

For orientation: mass density means mass per unit of volume. `CCCCCCO` [hexan-1-ol] + CCCCC(=O)O: in data set [1] (x2 = 0), the mass density came out at 815.1 ± 1 kg/m3.

Take `CCCCC(=O)O` [pentanoic acid] + CCCCCCCCO: the mass density was 828.2 ± 1 kg/m3 in data set [1] (x1 = 0.0809); 835.1 ± 1 kg/m3 in data set [1] (x1 = 0.1604); 842.4 ± 1 kg/m3 in data set [1] (x1 = 0.2392); 853 ± 1 kg/m3 in data set [1] (x1 = 0.3496); 862.3 ± 1 kg/m3 in data set [1] (x1 = 0.4399); 875.5 ± 1 kg/m3 in data set [1] (x1 = 0.5605). Moreover, the mass density in data set [1] (x1 = 0.6497) is reported as 886.1 ± 1 kg/m3; in data set [1] (x1 = 0.7401), 897.4 ± 1 kg/m3; in data set [1] (x1 = 0.8504) it was 912.4 ± 1 kg/m3; in data set [1] (x1 = 0.9403), 925.7 ± 1.1 kg/m3; in data set [1] (x1 = 1) it was 935.1 ± 1 kg/m3.

`CCCCCCCCCO` [nonan-1-ol]: in data set [2], the mass density was found to be 824 ± 1 kg/m3.

For the compound `CCCCC(=O)O` [pentanoic acid], in data set [2], the mass density worked out at 935.1 ± 1 kg/m3.

For the compound `CCCCCCCCO` [octan-1-ol] + CCCCC(=O)O, in data set [1] (x2 = 0), the mass density is on record as 821.4 ± 1 kg/m3.

Consider `CCCCCCCCO` [octan-1-ol], for which, in data set [2], the mass density is 821.4 ± 1 kg/m3.

Consider `CCCCC(=O)O` [pentanoic acid] + CCCCCCO, for which the mass density worked out at 825.4 ± 1 kg/m3 in data set [1] (x1 = 0.0924); 835.2 ± 1 kg/m3 in data set [1] (x1 = 0.1783); 845.1 ± 1 kg/m3 in data set [1] (x1 = 0.264); 858.6 ± 1 kg/m3 in data set [1] (x1 = 0.3796); 869.5 ± 1 kg/m3 in data set [1] (x1 = 0.4718); 883.9 ± 1 kg/m3 in data set [1] (x1 = 0.5914). Besides, the mass density in data set [1] (x1 = 0.6785) was found to be 894.5 ± 1 kg/m3; in data set [1] (x1 = 0.7639) it was 905 ± 1 kg/m3; in data set [1] (x1 = 0.8656), 917.8 ± 1 kg/m3; in data set [1] (x1 = 0.9468), 928.2 ± 1 kg/m3; in data set [1] (x1 = 1), 935.1 ± 1 kg/m3.

`CCCCCCCCCCO` [decan-1-ol]: the mass density in data set [2] was 826.1 ± 1 kg/m3.

For the compound `CCCCCO` [pentan-1-ol] + CCCCC(=O)O, the mass density in data set [1] (x2 = 0) is listed as 810.8 ± 1 kg/m3.

As for `CCCCCCO` [hexan-1-ol], in data set [2], the mass density came to 815.1 ± 1 kg/m3.

In the case of `CCCCC(=O)O` [pentanoic acid] + CCCCCCCCCO, the mass density is 830 ± 1 kg/m3 in data set [1] (x1 = 0.0802); 836.1 ± 1 kg/m3 in data set [1] (x1 = 0.1604); 842.8 ± 1 kg/m3 in data set [1] (x1 = 0.2394); 852.5 ± 1 kg/m3 in data set [1] (x1 = 0.3496); 861.2 ± 1 kg/m3 in data set [1] (x1 = 0.4397); 873.9 ± 1 kg/m3 in data set [1] (x1 = 0.5605). In addition, the mass density in data set [1] (x1 = 0.6497) is 884.3 ± 1 kg/m3; in data set [1] (x1 = 0.7401), 895.6 ± 1 kg/m3; in data set [1] (x1 = 0.8502), 911 ± 1 kg/m3; in data set [1] (x1 = 0.9403) it was 925 ± 1.1 kg/m3; in data set [1] (x1 = 1), 935.1 ± 1 kg/m3.

For the compound `CCCCCCCCCCO` [decan-1-ol] + CCCCC(=O)O, the mass density in data set [1] (x2 = 0) was 826.1 ± 1 kg/m3.

Take `CCCCCCCO` [heptan-1-ol] + CCCCC(=O)O: the mass density in data set [1] (x2 = 0) came to 818.7 ± 1 kg/m3.

As for `CCCCCCCCCO` [nonan-1-ol] + CCCCC(=O)O, the mass density in data set [1] (x2 = 0) was 824 ± 1 kg/m3.

Turning to `CCCCCO` [pentan-1-ol], the mass density in data set [2] is listed as 810.8 ± 1 kg/m3.

For `CCCCC(=O)O` [pentanoic acid] + CCCCCO, the mass density in data set [1] (x1 = 0.0807) is on record as 821.4 ± 1 kg/m3; in data set [1] (x1 = 0.1596), 831.9 ± 1 kg/m3; in data set [1] (x1 = 0.2398), 842.4 ± 1 kg/m3; in data set [1] (x1 = 0.3501) it was 856.7 ± 1 kg/m3; in data set [1] (x1 = 0.4401), 868.2 ± 1 kg/m3; in data set [1] (x1 = 0.5604) it was 883.1 ± 1 kg/m3. Moreover, the mass density in data set [1] (x1 = 0.6498) was found to be 894 ± 1 kg/m3; in data set [1] (x1 = 0.7399), 904.7 ± 1 kg/m3; in data set [1] (x1 = 0.8498), 917.6 ± 1 kg/m3; in data set [1] (x1 = 0.9396), 928.1 ± 1 kg/m3; in data set [1] (x1 = 1), 935.1 ± 1 kg/m3.

As for `CCCCCCCO` [heptan-1-ol], the mass density in data set [2] worked out at 818.7 ± 1 kg/m3.

For `CCCCC(=O)O` [pentanoic acid] + CCCCCCCO, the mass density was found to be 826.5 ± 1 kg/m3 in data set [1] (x1 = 0.0812); 834.3 ± 1 kg/m3 in data set [1] (x1 = 0.1601); 842.5 ± 1 kg/m3 in data set [1] (x1 = 0.24); 854.2 ± 1 kg/m3 in data set [1] (x1 = 0.3506); 864 ± 1 kg/m3 in data set [1] (x1 = 0.4398); 877.8 ± 1 kg/m3 in data set [1] (x1 = 0.5605). The mass density was found to be 888.5 ± 1 kg/m3 in data set [1] (x1 = 0.6496); 899.7 ± 1 kg/m3 in data set [1] (x1 = 0.7405); 914.1 ± 1 kg/m3 in data set [1] (x1 = 0.8501); 926.5 ± 1 kg/m3 in data set [1] (x1 = 0.9405); 935.1 ± 1 kg/m3 in data set [1] (x1 = 1).

On to `CCCCC(=O)O` [pentanoic acid] + CCCCCCCCCCO, for which the mass density in data set [1] (x1 = 0.0809) was determined as 831.4 ± 1 kg/m3; in data set [1] (x1 = 0.1598) it was 837 ± 1 kg/m3; in data set [1] (x1 = 0.2406), 843 ± 1 kg/m3; in data set [1] (x1 = 0.3493), 852 ± 1 kg/m3; in data set [1] (x1 = 0.4405), 860.2 ± 1 kg/m3; in data set [1] (x1 = 0.5601), 872.3 ± 1 kg/m3. Besides, the mass density in data set [1] (x1 = 0.6502) is on record as 882.5 ± 1 kg/m3; in data set [1] (x1 = 0.7406), 893.9 ± 1 kg/m3; in data set [1] (x1 = 0.8504), 909.6 ± 1.1 kg/m3; in data set [1] (x1 = 0.9411) it was 924.2 ± 1.1 kg/m3; in data set [1] (x1 = 1), 935.1 ± 1 kg/m3.
